Measured values: publication PMC5218480 (PLoS ONE, 2017)

System: MV-4-11 cells
Experiment: Gene expression microarray analysis (Affymetrix PrimeView) and GSEA
Assay type: cell-based, human
Set-up: RFU PODN (11730768_x_at) / Fold change /veh PODN (11730768_x_at) / RFU LINC00158 (11744669_a_at) / Fold change /veh LINC00158 (11744669_a_at) / RFU DUSP10 (11751237_a_at) / Fold change /veh DUSP10 (11751237_a_at) / RFU ID3 (11757404_x_at) / Fold change /veh ID3 (11757404_x_at) / RFU PLEKHG5 (11737974_s_at) / Fold change /veh PLEKHG5 (11737974_s_at) / RFU LRRC4B (11730491_at) / Fold change /veh LRRC4B (11730491_at) / RFU GIMAP4 (11747438_a_at) / Fold change /veh GIMAP4 (11747438_a_at) / RFU KRT8 (11758183_x_at) / Fold change /veh KRT8 (11758183_x_at) / RFU CNN1 (11734310_a_at) / Fold change /veh CNN1 (11734310_a_at) / RFU VPS37D (11726825_at) / Fold change /veh VPS37D (11726825_at) / RFU C10orf10 (11716522_x_at) / Fold change /veh C10orf10 (11716522_x_at) / RFU KIR2DL2 /// KIR2DL4 /// KIR2DL5A /// KIR2DL5B /// KIR2DS1 /// KIR2DS2 /// KIR2DS3 /// KIR2DS4 /// KIR3DL3 /// KIR3DL3 /// KIR3DS1 (11738374_at) / Fold change /veh KIR2DL2 /// KIR2DL4 /// KIR2DL5A /// KIR2DL5B /// KIR2DS1 /// KIR2DS2 /// KIR2DS3 /// KIR2DS4 /// KIR3DL3 /// KIR3DL3 /// KIR3DS1 (11738374_at) / RFU C1QL1 (11718748_at) / Fold change /veh C1QL1 (11718748_at) / RFU TMPRSS4 (11747572_a_at) / Fold change /veh TMPRSS4 (11747572_a_at) / RFU HAMP (11756126_x_at) / Fold change /veh HAMP (11756126_x_at) / RFU RNFT2 (11725882_a_at) / Fold change /veh RNFT2 (11725882_a_at) / RFU NR4A2 (11747474_a_at) / Fold change /veh NR4A2 (11747474_a_at) / RFU ABCC12 (11746883_a_at) / Fold change /veh ABCC12 (11746883_a_at) / RFU TMEM136 (11760407_x_at) / Fold change /veh TMEM136 (11760407_x_at) / RFU CLDN22 /// WWC2 (11732394_at) / Fold change /veh CLDN22 /// WWC2 (11732394_at) / RFU HLA-DPB1 (11760878_x_at) / Fold change /veh HLA-DPB1 (11760878_x_at) / RFU SPINT1 (11716480_a_at) / Fold change /veh SPINT1 (11716480_a_at) / RFU GAP43 (11754022_s_at) / Fold change /veh GAP43 (11754022_s_at) / RFU A4GNT (11735810_at) / Fold change /veh A4GNT (11735810_at) / RFU PRB3 (11715151_x_at) / Fold change /veh PRB3 (11715151_x_at) / RFU TUBB4B (11761932_at) / Fold change /veh TUBB4B (11761932_at) / RFU CAPN14 (11732068_a_at) / Fold change /veh CAPN14 (11732068_a_at) / RFU TMCC2 (11721928_a_at) / Fold change /veh TMCC2 (11721928_a_at) / RFU IRGQ (11745062_a_at) / Fold change /veh IRGQ (11745062_a_at) / RFU FAM174B (11720279_a_at) / Fold change /veh FAM174B (11720279_a_at) / RFU TMPRSS4 (11748680_a_at) / Fold change /veh TMPRSS4 (11748680_a_at) / RFU FAM212B (11763350_a_at) / Fold change /veh FAM212B (11763350_a_at) / RFU PLEKHG5 (11743358_a_at) / Fold change /veh PLEKHG5 (11743358_a_at) / RFU ZSCAN30 (11745921_a_at) / Fold change /veh ZSCAN30 (11745921_a_at) / RFU CMKLR1 (11741424_a_at) / Fold change /veh CMKLR1 (11741424_a_at) / RFU LOC101060620 /// MAPK8IP1 (11723275_at) / Fold change /veh LOC101060620 /// MAPK8IP1 (11723275_at) / RFU SPTSSB (11747773_x_at) / Fold change /veh SPTSSB (11747773_x_at) / RFU PRSS12 (11739890_at) / Fold change /veh PRSS12 (11739890_at) / RFU BIN1 (11741810_x_at) / Fold change /veh BIN1 (11741810_x_at) / RFU WNT11 (11732464_a_at) / Fold change /veh WNT11 (11732464_a_at) / RFU C10orf10 (11716521_a_at) / Fold change /veh C10orf10 (11716521_a_at) / RFU C5orf56 (11738089_at) / Fold change /veh C5orf56 (11738089_at) / RFU CYB561 (11721691_x_at) / Fold change /veh CYB561 (11721691_x_at) / RFU ANKRD19P (11752326_a_at) / Fold change /veh ANKRD19P (11752326_a_at) / RFU OR2T12 /// OR2T33 /// OR2T8 (11738714_s_at) / Fold change /veh OR2T12 /// OR2T33 /// OR2T8 (11738714_s_at) / RFU VCAN (11748164_a_at) / Fold change /veh VCAN (11748164_a_at) / RFU JSRP1 (11732532_at) / Fold change /veh JSRP1 (11732532_at) / RFU KRTAP10-11 (11738290_x_at) / Fold change /veh KRTAP10-11 (11738290_x_at) / RFU MYO3A (11730013_a_at) / Fold change /veh MYO3A (11730013_a_at) / RFU EBF3 (11725865_a_at) / Fold change /veh EBF3 (11725865_a_at) / RFU CAMK2N1 (11719241_x_at) / Fold change /veh CAMK2N1 (11719241_x_at) / RFU C5orf56 (11738088_a_at) / Fold change /veh C5orf56 (11738088_a_at) / RFU OLFML3 (11715873_a_at) / Fold change /veh OLFML3 (11715873_a_at) / RFU LOC100653217 /// NTM (11731650_a_at) / Fold change /veh LOC100653217 /// NTM (11731650_a_at) / RFU MAPK11 (11762145_a_at) / Fold change /veh MAPK11 (11762145_a_at) / RFU FIZ1 (11724087_x_at) / Fold change /veh FIZ1 (11724087_x_at) / RFU OASL (11726364_x_at) / Fold change /veh OASL (11726364_x_at) / RFU SOX15 (11748057_x_at) / Fold change /veh SOX15 (11748057_x_at) / RFU CD79A (11719716_a_at) / Fold change /veh CD79A (11719716_a_at) / RFU HIST1H1D (11736915_at) / Fold change /veh HIST1H1D (11736915_at) / RFU CASKIN2 (11723855_a_at) / Fold change /veh CASKIN2 (11723855_a_at) / RFU LOC730098 (11760151_x_at) / Fold change /veh LOC730098 (11760151_x_at) / RFU OR4N2 (11742367_at) / Fold change /veh OR4N2 (11742367_at) / RFU PRRT2 (11749266_a_at) / Fold change /veh PRRT2 (11749266_a_at) / RFU SNX32 (11753110_a_at) / Fold change /veh SNX32 (11753110_a_at) / RFU CDHR5 (11726645_a_at) / Fold change /veh CDHR5 (11726645_a_at) / RFU RCAN1 (11760418_a_at) / Fold change /veh RCAN1 (11760418_a_at) / RFU FAM167A (11723789_a_at) / Fold change /veh FAM167A (11723789_a_at) / RFU FAM26E (11764081_at) / Fold change /veh FAM26E (11764081_at) / RFU ISYNA1 (11749810_s_at) / Fold change /veh ISYNA1 (11749810_s_at) / RFU ACY1 (11761880_at) / Fold change /veh ACY1 (11761880_at) / RFU 11764098_at / Fold change /veh 11764098_at / RFU SAMD14 (11745864_x_at) / Fold change /veh SAMD14 (11745864_x_at) / RFU NPB (11741838_a_at) / Fold change /veh NPB (11741838_a_at) / RFU TMPRSS6 (11731388_a_at) / Fold change /veh TMPRSS6 (11731388_a_at) / RFU KRTAP10-2 (11738614_at) / Fold change /veh KRTAP10-2 (11738614_at) / RFU ARHGAP8 /// PRR5-ARHGAP8 (11727945_x_at) / Fold change /veh ARHGAP8 /// PRR5-ARHGAP8 (11727945_x_at) / RFU KRTAP5-7 /// NADSYN1 (11734609_at) / Fold change /veh KRTAP5-7 /// NADSYN1 (11734609_at) / RFU RASL12 (11751679_a_at) / Fold change /veh RASL12 (11751679_a_at) / RFU CDKN2B (11736163_a_at) / Fold change /veh CDKN2B (11736163_a_at) / RFU PRF1 (11729649_at) / Fold change /veh PRF1 (11729649_at) / RFU, ZNF638 /// ZNF638-IT1 / Fold change vs veh, ZNF638 /// ZNF638-IT1 / RFU, PANK3 / Fold change vs veh, PANK3 / RFU, SH3YL1 / Fold change vs veh, SH3YL1 / RFU, ZEB2 / Fold change vs veh, ZEB2 / RFU, NRIP1 / Fold change vs veh, NRIP1 / RFU, PTTG1IP / Fold change vs veh, PTTG1IP / RFU, CAPN2 / Fold change vs veh, CAPN2 / RFU, MED14 / Fold change vs veh, MED14 / RFU, SNORA58 / Fold change vs veh, SNORA58 / RFU, C1orf63 / Fold change vs veh, C1orf63 / RFU, LRRFIP1 / Fold change vs veh, LRRFIP1 / RFU, NDUFAF7 / Fold change vs veh, NDUFAF7 / RFU, SLC12A2 / Fold change vs veh, SLC12A2 / RFU, IBTK / Fold change vs veh, IBTK / RFU, ESF1 / Fold change vs veh, ESF1 / Fold change vs veh, TMEM50B / RFU, TAOK1 / Fold change vs veh, TAOK1 / RFU, ACBD3 / Fold change vs veh, ACBD3 / RFU, TMA16 / Fold change vs veh, TMA16 / RFU, RWDD3 / Fold change vs veh, RWDD3 / RFU, BCAT1 / Fold change vs veh, BCAT1 / RFU, EDEM3 / Fold change vs veh, EDEM3 / RFU, TMEM33 / Fold change vs veh, TMEM33 / RFU, WDR75 / Fold change vs veh, WDR75 / RFU, AHCTF1 / Fold change vs veh, AHCTF1 / RFU, TFRC / Fold change vs veh, TFRC / RFU, ZDHHC17 / Fold change vs veh, ZDHHC17 / RFU, NOM1 / Fold change vs veh, NOM1 / RFU, ARL8B / Fold change vs veh, ARL8B / RFU, ZBTB11 / Fold change vs veh, ZBTB11 / RFU, TAMM41 / Fold change vs veh, TAMM41 / RFU, KIAA1704 /// LOC100996395 / Fold change vs veh, KIAA1704 /// LOC100996395 / RFU, ING1 / Fold change vs veh, ING1 / RFU, TRMT61B / Fold change vs veh, TRMT61B / RFU, FUBP3 / Fold change vs veh, FUBP3 / RFU, TP53 / Fold change vs veh, TP53 / RFU, TNKS2 / Fold change vs veh, TNKS2 / RFU, ZFP14 / Fold change vs veh, ZFP14 / RFU, ACTR2 / Fold change vs veh, ACTR2 / RFU, PPP3R1 / Fold change vs veh, PPP3R1 / RFU, PIK3R1 / Fold change vs veh, PIK3R1 / RFU, HNRNPA1 / Fold change vs veh, HNRNPA1 / RFU, RNF170 / Fold change vs veh, RNF170 / RFU, ZNF28 / Fold change vs veh, ZNF28 / RFU, RNGTT / Fold change vs veh, RNGTT / RFU, OGT / Fold change vs veh, OGT / RFU, BRD1 / Fold change vs veh, BRD1 / RFU, MARS / Fold change vs veh, MARS / RFU, ZNF655 / Fold change vs veh, ZNF655 / RFU, FAHD1 / Fold change vs veh, FAHD1 / RFU, BDP1 / Fold change vs veh, BDP1 / RFU, LRRCC1 / Fold change vs veh, LRRCC1 / RFU, ARID1A / Fold change vs veh, ARID1A / RFU, ZNF146 / Fold change vs veh, ZNF146 / RFU, ZNF330 / Fold change vs veh, ZNF330 / RFU, GPN3 / Fold change vs veh, GPN3 / RFU, C9orf123 / Fold change vs veh, C9orf123 / RFU, N4BP2L2 / Fold change vs veh, N4BP2L2 / RFU, ARFIP1 / Fold change vs veh, ARFIP1 / RFU, FAM179B / Fold change vs veh, FAM179B / RFU, BCL10 / Fold change vs veh, BCL10 / RFU, UHRF1BP1L / Fold change vs veh, UHRF1BP1L / RFU, BET1 / Fold change vs veh, BET1 / RFU, CNOT2 / Fold change vs veh, CNOT2 / RFU, ZNF268 / Fold change vs veh, ZNF268 / Fold change vs veh, ZNF507 / RFU, DGCR2 / Fold change vs veh, DGCR2 / RFU, WDSUB1 / Fold change vs veh, WDSUB1 / Fold change vs veh, HSP90B1 /// MIR3652 / RFU, ADSS / Fold change vs veh, ADSS / RFU, GK / Fold change vs veh, GK / RFU, ZNF148 / Fold change vs veh, ZNF148 / RFU, TAF9 / Fold change vs veh, TAF9 / RFU, SLC1A5 / Fold change vs veh, SLC1A5 / RFU, SLMO2 / Fold change vs veh, SLMO2 / RFU, ABCC4 / Fold change vs veh, ABCC4 / RFU, LOC101060439 /// RAP1B / Fold change vs veh, LOC101060439 /// RAP1B / RFU, RFX7 / Fold change vs veh, RFX7 / RFU, GTPBP10 / Fold change vs veh, GTPBP10 / RFU, CNEP1R1 / Fold change vs veh, CNEP1R1 / RFU, BIVM-ERCC5 /// ERCC5 / Fold change vs veh, BIVM-ERCC5 /// ERCC5 / RFU, ILF3 / Fold change vs veh, ILF3 / RFU 11762660_at / Fold change /veh 11762660_at / RFU VCAN (11757783_s_at) / Fold change /veh VCAN (11757783_s_at) / RFU DDX43 (11728927_at) / Fold change /veh DDX43 (11728927_at) / RFU KRT8 (11758188_x_at) / Fold change /veh KRT8 (11758188_x_at) / RFU NKD1 (11759106_at) / Fold change /veh NKD1 (11759106_at) / RFU SRD5A1 (11742802_a_at) / Fold change /veh SRD5A1 (11742802_a_at) / RFU TPSAB1 /// TPSB2 (11721975_s_at) / Fold change /veh TPSAB1 /// TPSB2 (11721975_s_at) / RFU GSTM3 (11746129_a_at) / Fold change /veh GSTM3 (11746129_a_at) / RFU IL23R (11737362_x_at) / Fold change /veh IL23R (11737362_x_at) / RFU TMEM51 (11727254_a_at) / Fold change /veh TMEM51 (11727254_a_at) / RFU PIWIL2 (11732686_x_at) / Fold change /veh PIWIL2 (11732686_x_at) / RFU ORM1 (11744905_x_at) / Fold change /veh ORM1 (11744905_x_at) / RFU CCDC152 (11743942_at) / Fold change /veh CCDC152 (11743942_at) / RFU ECM1 (11717891_a_at) / Fold change /veh ECM1 (11717891_a_at) / RFU IL23R (11748794_a_at) / Fold change /veh IL23R (11748794_a_at) / RFU TNFAIP8L3 (11732012_x_at) / Fold change /veh TNFAIP8L3 (11732012_x_at) / RFU MBOAT4 (11741988_at) / Fold change /veh MBOAT4 (11741988_at) / RFU 11764193_at / Fold change /veh 11764193_at / RFU TMEM53 (11763286_at) / Fold change /veh TMEM53 (11763286_at) / RFU MAGEB2 (11727129_at) / Fold change /veh MAGEB2 (11727129_at) / RFU TMEM200A (11744735_a_at) / Fold change /veh TMEM200A (11744735_a_at) / RFU CCDC152 (11751479_a_at) / Fold change /veh CCDC152 (11751479_a_at) / RFU FAM211A (11726209_a_at) / Fold change /veh FAM211A (11726209_a_at) / RFU RGS16 (11746705_a_at) / Fold change /veh RGS16 (11746705_a_at) / RFU VCAN (11755009_s_at) / Fold change /veh VCAN (11755009_s_at) / RFU RHOB (11743442_s_at) / Fold change /veh RHOB (11743442_s_at) / RFU RGS16 (11720943_a_at) / Fold change /veh RGS16 (11720943_a_at) / RFU RGS16 (11720944_at) / Fold change /veh RGS16 (11720944_at) / RFU, VPS4B / Fold change vs veh, VPS4B / RFU, CREB1 / Fold change vs veh, CREB1 / RFU, DNAJC13 / Fold change vs veh, DNAJC13 / RFU, GNAQ / Fold change vs veh, GNAQ / RFU, CDK5R1 / Fold change vs veh, CDK5R1 / RFU, ZRANB3 / Fold change vs veh, ZRANB3 / RFU, CUL4A / Fold change vs veh, CUL4A / RFU, CCNY / Fold change vs veh, CCNY / RFU, UFL1 / Fold change vs veh, UFL1 / RFU, COG3 / Fold change vs veh, COG3 / RFU, DIAPH2 / Fold change vs veh, DIAPH2 / RFU, SKA2 / Fold change vs veh, SKA2 / RFU, AFF3 / Fold change vs veh, AFF3 / RFU, LMF1 / Fold change vs veh, LMF1 / RFU, IPO11 / Fold change vs veh, IPO11 / RFU, DFFB / Fold change vs veh, DFFB / RFU, FOXP1 / Fold change vs veh, FOXP1 / RFU, CARD8 / Fold change vs veh, CARD8 / RFU, STRN3 / Fold change vs veh, STRN3 / RFU, ADK / Fold change vs veh, ADK / RFU, RASSF2 / Fold change vs veh, RASSF2 / RFU, WIPF1 / Fold change vs veh, WIPF1 / RFU, LARP1B / Fold change vs veh, LARP1B / RFU, RASA1 / Fold change vs veh, RASA1 / RFU, RB1 / Fold change vs veh, RB1 / RFU, PPFIA1 / Fold change vs veh, PPFIA1 / RFU, MAT2A / Fold change vs veh, MAT2A / RFU, CCT5 / Fold change vs veh, CCT5 / RFU, WDR92 / Fold change vs veh, WDR92 / RFU, CUX1 / Fold change vs veh, CUX1 / RFU, TTC7A / Fold change vs veh, TTC7A / RFU, TMEM135 / Fold change vs veh, TMEM135 / RFU, DEPTOR / Fold change vs veh, DEPTOR / RFU, CPM / Fold change vs veh, CPM / RFU, DNAJB6 / Fold change vs veh, DNAJB6 / RFU, CACNA2D3 / Fold change vs veh, CACNA2D3 / RFU, DTX4 / Fold change vs veh, DTX4 / RFU, TFCP2 / Fold change vs veh, TFCP2 / RFU, GMCL1 /// GMCL1P1 / Fold change vs veh, GMCL1 /// GMCL1P1 / RFU, AEBP2 / Fold change vs veh, AEBP2 / RFU, SNHG1 /// SNORD22 /// SNORD25 /// SNORD26 /// SNORD27 /// SNORD28 /// SNORD29 /// SNORD31 / Fold change vs veh, SNHG1 /// SNORD22 /// SNORD25 /// SNORD26 /// SNORD27 /// SNORD28 /// SNORD29 /// SNORD31 / Fold change (Aza/veh), C12orf56 (ProbeSet 11735607_a_at) / Fold change (ACY-1035/veh), C12orf56 (ProbeSet 11735607_a_at) / Fold change (Aza/veh), FGFR1OP (ProbeSet 11751329_s_at) / Fold change (ACY-1035/veh), FGFR1OP (ProbeSet 11751329_s_at) / Fold change (Aza/veh), VPS36 (ProbeSet 11739960_a_at) / Fold change (ACY-1035/veh), VPS36 (ProbeSet 11739960_a_at) / RFU SYPL1 (11715823_x_at) / Fold change /veh SYPL1 (11715823_x_at) / RFU IGFBP7 (11715501_s_at) / Fold change /veh IGFBP7 (11715501_s_at) / RFU REEP3 (11722064_at) / Fold change /veh REEP3 (11722064_at) / RFU IGLL1 (11728026_x_at) / Fold change /veh IGLL1 (11728026_x_at): dose or concentration left out as unconfirmed
Details: MV-4-11 cells, 48 hours

Nc1ncn([C@@H]2O[C@H](CO)[C@@H](O)[C@H]2O)c(=O)n1 [azacitidine]
RFU LOC101060620 /// MAPK8IP1 (11723275_at): 10.14 RFU
